# A melting point compilation (Tetko et al.; mined from patent text by program, amines drawn as free bases though some values may be those of a salt)
row,Structure (SMILES),melting point [°C]
1,CCOC(=O)c1c(C)nc2sc3c(c2c1OS(=O)(=O)C(F)(F)F)CCC1(C3)OCCO1,133 to 134
2,COc1ccc(-c2ccc(OC)c(C34CC5CC(CC(C5)C3)C4)c2)cc1C12CC3CC(CC(C3)C1)C2,288 to 289
3,C=CCN[C@H]1CC(C(=O)OCC)=C[C@@H](OC(CC)CC)[C@@H]1NC(C)=O,100 to 104
4,Cc1c(C2(N(C)C)CCC(c3cccc(F)c3)(N(C)C)CC2)[nH]c2ccccc12 (stereo not given),126 to 132
5,O=C1CC2OC(CBr)CN12 (stereo not given),49 to 50
6,Cc1cc2cc(C#N)c(Cl)nc2cc1C,189 to 190
7,CC(C)(C)C(=O)c1ccc(C2(C)OCCO2)cc1,75 to 82
8,O=CC1=C(c2ccc(Cl)c(Cl)c2)C2CCC1CC2,71 to 71.5
9,CCOC(=O)COc1ccc(NC(=O)OC(C)(C)C)cc1OC,81 to 83
10,CSC(NCc1ccc(N)cc1)=C(C#N)C#N,100 to 102
11,CN1CC(OCC=C(Cl)Cl)(C(F)(F)F)c2cc(Cl)ccc2NC1=O (stereo not given),149 to 150
12,CCOC(=O)C1=C(C)NC(CO)=C(C(=O)OCC)C1c1cccc([N+](=O)[O-])c1 (stereo not given),141 to 142
13,O=C(O)Cc1ccc(C2CCCC(=O)C2)cc1 (stereo not given),96
14,COc1ccc2nc(Cl)c(NN)nc2c1,< 250
15,CN1CCN(C(=O)c2ccc(Nc3cc(NC(=O)Nc4c(Cl)cc(Cl)cc4Cl)ncn3)cc2)CC1,165 to 175
16,O=c1c2ccccc2sn1CCN1CC=C(c2ccccc2)CC1,90 to 92
17,Cc1ccc2cc(C(=O)O)oc2c1C,235 to 237
18,CCOc1ccc(C(=O)CC(C(=O)O)N2CCOCC2)cc1OC (stereo not given),157
19,CCOc1c(Nc2cc(C(F)(F)F)ccc2OC)c(=O)c1=O,143 to 155
20,COC(=O)c1c(C)[nH]c(-c2ccncn2)c1C(=O)OC,210 to 211
21,CNc1nsnc1-c1c(Cl)cccc1Cl,145 to 146
22,CC(C)(C)OC(=O)NC1CCN(c2c(F)cc3c(=O)c(C(=O)O)cn(C4CC4)c3c2F)C1 (stereo not given),239 to 240
23,CCC(CC)c1ccc(Cl)c2nc(Nc3c(C)noc3C)n(CCCCO)c12,150 to 155
24,CCNC(=S)NS(=O)(=O)c1cc2c(cc1OC)OCCC2CNC(=O)N1CC(C)=C(CC)C1=O (stereo not given),147

row,Structure (SMILES),melting point [°C]
1,O=C(N[C@H]1CC[C@H](CCN2CCC(c3cccc4c3CCO4)CC2)CC1)c1ccc(N2CCOCC2)nc1,228
2,CCCCCCCNC(=O)Nc1ccc(CCc2cc(C(C)(C)C)c(O)c(C(C)(C)C)c2)cc1,151 to 152
3,Cc1nc(N2CCN(CC3CC3)C2=O)sc1C(=O)NCc1cncc(F)c1,144 to 145
4,CCS(=O)(=O)c1c(Cl)nc(Cl)nc1Cl,135 to 136
5,CCCCCCCCCCCCCCn1nnc(NC(=O)Nc2c(C(C)C)cccc2C(C)C)n1,112 to 114
6,COc1cccc(CC[C@H](O)CO[Si](C)(C)C(C)(C)C)c1O,44 to 46
7,COC1OC(=O)c2cccc([N+](=O)[O-])c21 (stereo not given),115 to 118
8,COc1cc(F)c(-c2nn(C)c(C(F)(F)F)c2Cl)cc1[N+](=O)[O-],116
9,Cc1nc(N2CCC(c3ccc(F)cc3)CC2)c([N+](=O)[O-])c(=O)n1CCCCO,154 to 156
10,O=C(O)CCC(=O)c1cccc(S(=O)(=O)Cl)c1,73 to 78
11,CCOC(=O)C(=O)CC(=O)CC(=O)c1ccc(Cl)cc1,93 to 94
12,COc1cc2c(cc1OC)CC(NC(=O)C1CCCN1)CC2 (stereo not given),108 to 109
13,COc1ccc2c(c1)Sc1cc(OC)ccc1N2CCC#N,111 to 113
14,O=C1CCc2cc(Cl)cc(Cl)c2C1,90 to 92
15,CC1=NC(c2ccccc2)c2c(cc[nH]c2=O)N1 (stereo not given),263 to 264
16,CC(C)(S)CN(Cc1ccccc1)C(=O)CCC(=O)O,123 to 126
17,CN=C(NC#N)NCCSCc1ccsn1,63 to 64
18,CCC(=O)C1=C(O)CC(c2c(C)c(C)c3c(c2C)OC(C)(C)C3)CC1=O (stereo not given),74 to 76
19,CCCCOc1nc(N)c2[nH]c(=O)n(CCCNc3cccc(CC(=O)OC)c3)c2n1,208 to 209
20,COC(=O)CCc1cc(C(C)(C)C)c2oc(-c3ccc(-c4nc5cc(CCC(=O)OC)cc(C(C)(C)C)c5o4)s3)nc2c1,144 to 145
21,CCOc1ccccc1-c1cc(NC(=O)C2CCN(C(C)C)CC2)ncn1,173 to 175
22,Cc1sc(C=O)c(C)c1C,45 to 46
23,C/C=C/Cn1c(Cc2cc(C)cc(C)c2)c(CC)c(=O)[nH]c1=O,145 to 146

# The remaining lines, values ahead:
row,melting point [°C],Structure (SMILES)
1,192 to 193,CCOc1ccc(-c2nc(-c3cccc(C(=O)O)c3)cs2)cc1OCC
2,65,CN1C(=O)C(c2ccc(OC(F)F)cc2)(c2cccc(CCCCC#N)c2)N=C1N (stereo not given)
3,194,COc1ccc(C(=O)Nc2ccc3ccc(C=O)nc3n2)cc1
4,149 to 151,O=C(Cn1nc(-c2ccccc2O)nc1-c1ccccc1O)N1CCOCC1
5,124 to 125,ClC1=Nc2nc(C3CCCC3)n(Cc3ccccc3)c2C2=N[C@H](Cc3ccccc3)CN12
6,67 to 70,COC(=O)C(C)Oc1ccc(NC(=O)COCc2ccccc2)cc1 (stereo not given)
7,75 to 77,Clc1ccc(-c2noc(CCC#Cc3ccccn3)n2)cc1
8,227 to 228,O=C1c2ccccc2CCC1CN1CCC(O)(c2ccc(Cl)cc2)CC1 (stereo not given)
9,201 to 203,CC(=O)N1CCN(CCc2ccc(-c3cccc(N)n3)cc2)CC1
10,166 to 167,CC(C)OC(=O)N1CCC(NC(=O)N2CCn3c(c(C(N)=O)c(Cl)c3-c3ccccc3)C2)CC1
11,129 to 131,CC(C)(C)OC(=O)Nc1ccc(C#Cc2ccc(OC(F)(F)F)cc2)cc1[N+](=O)[O-]
12,99 to 100,CCOC(=O)C1CCNC(=O)C1=NCCc1ccccc1 (stereo not given)
13,200 to 202,CCNC1CCN(c2cccc(-c3cnc4[nH]cc(C(=O)C(C)(C)C)c4n3)c2)C1 (stereo not given)
14,199 to 200,c1cnc2ccc(Nc3nccc(-c4ccc(N5CCNCC5)nc4)n3)cc2c1
15,268 to 270,O=C(O)c1ccc(COc2ccc3cc(-c4csc(-c5ccccc5)n4)ccc3c2Br)cc1
16,140 to 141,COc1ccc(Cl)cc1C(=O)NCc1ccc(CC(=O)O)cc1
17,184 to 185,COc1ccc(CNC(=O)c2cc3c(=O)n(CCOc4ccc(Br)cc4)c(=O)n(C)c3s2)cc1
18,216 to 218,Nc1cc(C(=O)O)cc(OCc2ccccc2)c1C(=O)c1ccccc1
19,161 to 162,Nc1cccc2c1C(=O)N(c1ccc(OC(F)(F)F)cc1)C2=O
20,100 to 101,Nc1ccccc1N1CCN(CCCOc2cccc3c2CCCC3)CC1
21,70.3,CC#CCOc1nsc(-c2ccccc2)n1
22,248 to 250,Clc1cc2cc[nH]c2c2cccnc12
23,135 to 138,CN(C=O)c1c2oc3ccccc3c2nn1C
24,242 to 243,CCOC(=O)c1cc2c3ccccc3[nH]c(=S)n2n1
25,232 to 235,CS(=O)(=O)Nc1cccc(C2=Nc3ccc(-c4ccc(F)cc4)cc3NC(=O)C2)c1
26,167,CCN(CC)CCCCC1CCN(CCNC(=O)N2c3ccccc3C(=O)Nc3cccnc32)CC1
27,318,O=c1c2cc(O)c(O)cc2c2cc(O)c(O)cc2n1Cc1ccc(Cl)c(Cl)c1

row,melting point [°C],Structure (SMILES)
1,255 to 256,CC1(C)C(=O)Nc2ccc(-c3ccc(C#N)s3)cc21
2,327 to 330,Oc1ccc(-c2nc(-c3ccccc3)[nH]c2-c2ccc(O)cc2)cc1
3,142 to 143,O=S(=O)(NCCCCOc1ccc(-n2cnnn2)cc1)c1cccc2nsnc12
4,213,Nc1ccc(C(=O)N2CC3CC(CN(Cc4ccc(Cl)cc4)C3)C2)cc1
5,197 to 198,CNC(=S)Nc1cc(OC)c(-c2ccc(C[C@H](NC(=O)c3c(Cl)cccc3Cl)C(=O)O)cc2)c(OC)c1
6,138 to 144,COc1ccc(N2CCN(c3ccc(OC)nc3-c3ccc(C(C)(C)O)cc3)CC2)cc1
7,201 to 202,CCOC(=O)c1sc(Oc2ccc(NS(=O)(=O)c3ccc(C)cc3)cc2)c2c1CCc1cnn(C)c1-2
8,162 to 164,Nc1ncc(-c2ccccc2)c(N)n1
9,111 to 114,c1ccc(CN2CCC(n3cnnc3-c3ccccc3)CC2)cc1
10,70,O=C(O)CCCOc1ccc(CCNC(=O)C2Cc3ccccc3N2S(=O)(=O)c2ccc(-c3cccc(C(F)(F)F)c3)cc2)cc1 (stereo not given)
11,144 to 146,Cc1c(Cl)cccc1N=c1scc(-c2ccc(Cl)c(S(=O)(=O)N(C)C)c2)n1C
12,91 to 103,CCOP(=O)(NCC(=O)OCc1ccccc1)C1CC(c2ccccc2)=NO1 (stereo not given)
13,161 to 162,Cc1cccc(S(=O)(=O)Nc2cccnc2Nc2ccccc2)c1
14,228,Cn1c(/C=C/C=O)c(-c2ccccc2)c2ccccc2c1=O
15,179 to 180,COC(=O)c1ccc(Cn2c(=O)c(C)c3sc(C(=O)NCc4ccc(F)cc4)cn3c2=O)cc1C
16,162 to 164,CCCCCCCN(CCc1ccc(OC(C)(C)C(=O)O)cc1)C(=O)Nc1ccc(F)cc1
17,159 to 160,CC(=O)NCc1c(C)cc(CN2CCN(c3ccccc3)CC2)cc1C
18,88 to 90,CCCc1c(OCCOc2ccc(S(=O)(=O)c3nnn[nH]3)cc2)ccc(C(C)=O)c1O
19,263 to 265,COCc1n[nH]c2c1c(=O)n(-c1ccccc1)c1ncccc21
20,> 300,Cc1nc(NC(=O)Nc2ccc(Cl)cc2)sc1C(=O)NCc1ccccc1
21,167 to 170,N#CC(C(=O)c1nn(-c2ccccc2)c2c1CSc1ccccc1-2)C(=S)Nc1ccccc1 (stereo not given)
22,235 to 237,Cc1cc(-c2ccc3nnn(Cc4ccc5ncccc5c4)c3n2)ccc1C(N)=O
23,116 to 118,C#CCNC1(c2ccccc2)c2ccccc2Oc2ccccc21
24,161 to 162,Nc1cccc(-c2cc(NC(=O)c3cccs3)nc(-c3ccccc3O)c2)c1
25,60 to 61,CCCCC(CNc1nc(C)c(O)c(C(C)C)n1)c1ccccc1 (stereo not given)
26,120 to 121,N#Cc1ccc(Oc2ccc(F)cc2)nc1
